In the assay the target is human PAD4 (hPAD4) (Homo sapiens, UniProt Q9UM07). The experiment in a line: RFMS human PAD4 functional assay (rapid-fire mass spectrum). Type of assay: biochemical. The conditions noted are these: 5 nM hPAD4 enzyme, 250 μM BAEE, 50 μM Calcium; 30 min preincubation, 90 min reaction at 37° C. In short, it runs like this: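 PAD4 (10 nM) preincubated 30 min with compound (top final 50 μM), then BAEE substrate added in pH 7.5 HEPES buffer with DTT, 50 μM calcium, TPEN; 90 min at 37° C. After TCA quench, citrulline derivatized with phenyl glyoxal (4 mM final, 30 min, 37° C) and quantified by RapidFire MS against internal standard.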

The text below walks through data of US12692254B2, “Benzimidazole inhibitors of PAD enzymes” (BRISTOL-MYERS SQUIBB COMPANY, priority 2018, dated 2026).

pIC50: −log10 of the molar value.

Chain of human PAD4 (hPAD4) (Q9UM07 whole entry): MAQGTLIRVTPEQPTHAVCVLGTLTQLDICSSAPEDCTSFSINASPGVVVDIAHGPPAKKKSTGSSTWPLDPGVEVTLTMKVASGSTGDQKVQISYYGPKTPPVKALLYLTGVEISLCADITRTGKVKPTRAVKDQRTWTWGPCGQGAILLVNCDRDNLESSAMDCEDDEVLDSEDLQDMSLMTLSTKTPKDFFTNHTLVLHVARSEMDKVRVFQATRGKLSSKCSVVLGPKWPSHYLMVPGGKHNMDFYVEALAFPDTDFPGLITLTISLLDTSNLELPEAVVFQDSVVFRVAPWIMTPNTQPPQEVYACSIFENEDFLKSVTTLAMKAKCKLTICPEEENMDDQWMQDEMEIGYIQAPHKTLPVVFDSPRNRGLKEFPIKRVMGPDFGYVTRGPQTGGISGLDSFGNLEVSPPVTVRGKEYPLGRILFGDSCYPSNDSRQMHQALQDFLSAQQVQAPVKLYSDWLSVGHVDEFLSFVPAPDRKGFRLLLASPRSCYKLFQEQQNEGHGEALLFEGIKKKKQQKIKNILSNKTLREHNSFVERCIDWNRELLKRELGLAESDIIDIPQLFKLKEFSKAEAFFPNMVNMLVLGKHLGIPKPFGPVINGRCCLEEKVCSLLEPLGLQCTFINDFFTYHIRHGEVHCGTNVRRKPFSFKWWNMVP

A word on the pIC50: it is −log10 of the IC50, conventionally taken in molar units. With `COc1cc(C(=O)N2C[C@H]3CC[C@@H]2[C@@H]3N)cc2nc(-c3cc4cccnc4n3CC3CC3)n(CC3CNC3)c12` [Example 306, (1R,4R,7R)-2-{1-[(azetidin-3-yl)methyl]-2-[1-(cyclopropylmethyl)-1H-pyrrolo[2,3-b]pyridin-2-yl]-7-methoxy-1H-1,3-benzodiazole-5-carbonyl}-2-azabicyclo[2.2.1]heptan-7-amine], the negative logarithm of the IC50 (pIC50) is 6.61. As for `COc1cc(C(=O)N2C[C@H]3CC[C@@H]2[C@@H]3N)cc2nc(-c3cc4cccnc4n3CC3CC3)n(CC3CN(S(=O)(=O)c4ccc(Cl)nc4)C3)c12` [Example 334, (1R,4R,7R)-2-[1-({1-[(6-chloropyridin-3-yl)sulfonyl]azetidin-3-yl}methyl)-2-[1-(cyclopropylmethyl)-1H-pyrrolo[2,3-b]pyridin-2-yl]-7-methoxy-1H-1,3-benzodiazole-5-carbonyl]-2-azabicyclo[2.2.1]heptan-7-amine], the figure is 6.65. With `COc1cc(C(=O)N2C[C@H]3CC[C@@H]2[C@@H]3N)cc2nc(-c3cc4cc(Cl)ccc4n3C)n(CC3CN(c4ccnc(C#N)n4)C3)c12` [Example 42, 4-[3-({5-[(1R,4R,7R)-7-amino-2-azabicyclo[2.2.1]heptane-2-carbonyl]-2-(5-chloro-1-methyl-1H-indol-2-yl)-7-methoxy-1H-1,3-benzodiazol-1-yl}methyl)azetidin-1-yl]pyrimidine-2-carbonitrile], the negative logarithm of the IC50 (pIC50) is 6.99. As for `COc1cc(C(=O)N2C[C@H]3CC[C@@H]2[C@@H]3N)cc2nc(-c3cc4cccnc4n3CC3CC3)n(CC3CCN(C(=O)c4ccnc(Cl)c4)CC3)c12` [Example 198, (1R,4R,7R)-2-(1-{[1-(2-chloropyridine-4-carbonyl)piperidin-4-yl]methyl}-2-[1-(cyclopropylmethyl)-1H-pyrrolo[2,3-b]pyridin-2-yl]-7-methoxy-1H-1,3-benzodiazole-5-carbonyl)-2-azabicyclo[2.2.1]heptan-7-amine], the figure is 6.88; as for `COc1cc(C(=O)N2C[C@H]3CC[C@@H]2[C@@H]3N)cc2nc(-c3cc4ccccc4n3CC3CC3)n(CC3CN(C(=O)c4ccc(-c5ccc(O)cc5)cc4)C3)c12` [Example 149, 4′-[3-({5-[(1R,4R,7R)-7-amino-2-azabicyclo[2.2.1]heptane-2-carbonyl]-2-[1-(cyclopropylmethyl)-1H-indol-2-yl]-7-methoxy-1H-1,3-benzodiazol-1-yl}methyl)azetidine-1-carbonyl]-[1,1′-biphenyl]-4-ol], 7.72; as for `N#Cc1ccc(C(=O)N2CC(Cn3c(-c4cc5cccnc5n4CC4CC4)nc4cc(C(=O)N5CC6CCC5[C@@H]6N)ccc43)C2)cc1` (stereo partly drawn) [Example 467, 4-[3-({5-[(7R)-7-amino-2-azabicyclo[2.2.1]heptane-2-carbonyl]-2-[1-(cyclopropylmethyl)-1H-pyrrolo[2,3-b]pyridin-2-yl]-1H-1,3-benzodiazol-1-yl}methyl)azetidine-1-carbonyl]benzonitrile], 7.04. The result for `COc1cc(C(=O)N2C[C@H]3CC[C@@H]2[C@@H]3N)cc2nc(-c3cc4cccnc4n3CC3CC3)n(CC3CN(C(=O)c4cnc(C#N)nc4)C3)c12` [Example 127, 5-[3-({5-[(1R,4R,7R)-7-amino-2-azabicyclo[2.2.1]heptane-2-carbonyl]-2-[1-(cyclopropylmethyl)-1H-pyrrolo[2,3-b]pyridin-2-yl]-7-methoxy-1H-1,3-benzodiazol-1-yl}methyl)azetidine-1-carbonyl]pyrimidine-2-carbonitrile] reads 6.96.

Take `COc1cc(C(=O)N2CCC[C@@H](N)C2)cc2nc(-c3cc4ccccc4n3CC3CC3)n(CC3CN(C(=O)c4ccc(C#N)cc4)C3)c12` [Example 180, 4-[3-({5-[(3R)-3-aminopiperidine-1-carbonyl]-2-[1-(cyclopropylmethyl)-1H-indol-2-yl]-7-methoxy-1H-1,3-benzodiazol-1-yl}methyl)azetidine-1-carbonyl]benzonitrile]: the pIC50 was 7.02. The result for `COc1cc(C(=O)N2CC3CCC2[C@@H]3N)cc2nc(-c3cc4cccnc4n3CC3CC3)n(CC3CCN(c4ncccn4)C3)c12` (stereo in doubt) [Example 234, (1R,4R,7R)-2-{2-[1-(cyclopropylmethyl)-1H-pyrrolo[2,3-b]pyridin-2-yl]-7-methoxy-1-{[(3R)-1-(pyrimidin-2-yl)pyrrolidin-3-yl]methyl}-1H-1,3-benzodiazole-5-carbonyl}-2-azabicyclo[2.2.1]heptan-7-amine] reads 6.48; that for `COc1cc(C(=O)N2C[C@H](N)C[C@@H](F)C2)cc2nc(-c3cc4cccnc4n3CC3CC3)n(Cc3cc(C)nn3C)c12` [Example 515, (3R,5R)-1-{2-[1-(cyclopropylmethyl)-1H-pyrrolo[2,3-b]pyridin-2-yl]-1-[(1,3-dimethyl-1H-pyrazol-5-yl)methyl]-7-methoxy-1H-1,3-benzodiazole-5-carbonyl}-5-fluoropiperidin-3-amine], 6.30.

`COc1cc(C(=O)N2C[C@H]3CC[C@@H]2[C@@H]3N)cc2nc(-c3cc4cccnc4n3CC3CC3)n(CC3CN(C(=O)C4CCCCC4)C3)c12` [Example 110, (1R,4R,7R)-2-{1-[(1-cyclohexanecarbonylazetidin-3-yl)methyl]-2-[1-(cyclopropylmethyl)-1H-pyrrolo[2,3-b]pyridin-2-yl]-7-methoxy-1H-1,3-benzodiazole-5-carbonyl}-2-azabicyclo[2.2.1]heptan-7-amine]: the pIC50 was 7.34.

As to `COc1cc(C(=O)N2C[C@H]3CC[C@@H]2[C@@H]3N)cc2nc(-c3cc4cccnc4n3CC3CC3)n(CC3CN(C(=O)c4ccnc(C#N)c4)C3)c12` [Example 183, 4-[3-({5-[(1R,4R,7R)-7-amino-2-azabicyclo[2.2.1]heptane-2-carbonyl]-2-[1-(cyclopropylmethyl)-1H-pyrrolo[2,3-b]pyridin-2-yl]-7-methoxy-1H-1,3-benzodiazol-1-yl}methyl)azetidine-1-carbonyl]pyridine-2-carbonitrile], the negative logarithm of the IC50 (pIC50) is 6.56. As for `COc1cc(C(=O)N2CC3CCC2[C@@H]3N)cc2nc(-c3cc4ccccc4n3CC3CC3)n(CC3CC(=O)N(C)C3)c12` (stereo partly drawn) [Example 474, 4-({5-[(7R)-7-amino-2-azabicyclo[2.2.1]heptane-2-carbonyl]-2-[1-(cyclopropylmethyl)-1H-indol-2-yl]-7-methoxy-1H-1,3-benzodiazol-1-yl}methyl)-1-methylpyrrolidin-2-one], the figure is 6.83; as for `COc1cc(C(=O)N2C[C@H]3CC[C@@H]2[C@@H]3N)cc2nc(-c3cc4ccccc4n3CC3CC3)n(Cc3cnn(Cc4ccccc4)c3)c12` [Example 259, (1R,4R,7R)-2-{1-[(1-benzyl-1H-pyrazol-4-yl)methyl]-2-[1-(cyclopropylmethyl)-1H-indol-2-yl]-7-methoxy-1H-1,3-benzodiazole-5-carbonyl}-2-azabicyclo[2.2.1]heptan-7-amine], 7.36. The result for `COc1cc(C(=O)N2C[C@H]3CC[C@@H]2[C@@H]3N)cc2nc(-c3cc4cccnc4n3CC3CC3)n(C3CN(c4cncc(C#N)n4)C3)c12` [Example 69, 6-(3-{5-[(1R,4R,7R)-7-amino-2-azabicyclo[2.2.1]heptane-2-carbonyl]-2-[1-(cyclopropylmethyl)-1H-pyrrolo[2,3-b]pyridin-2-yl]-7-methoxy-1H-1,3-benzodiazol-1-yl}azetidin-1-yl)pyrazine-2-carbonitrile] reads 7.24; that for `COc1cc(C(=O)N2CC3CCC2[C@@H]3N)cc2nc(-c3cc4cccnc4n3CC3CC3)n(Cc3cnn(-c4cccnc4O)c3)c12` (stereo partly drawn) [Example 374, 3-[4-({5-[(7R)-7-amino-2-azabicyclo[2.2.1]heptane-2-carbonyl]-2-[1-(cyclopropylmethyl)-1H-pyrrolo[2,3-b]pyridin-2-yl]-7-methoxy-1H-1,3-benzodiazol-1-yl}methyl)-1H-pyrazol-1-yl]pyridin-2-ol], 7.46; that for `COc1cc(C(=O)N2CC3CCC2[C@@H]3N)cc2nc(-c3cc4ccccc4n3CC3CC3)n(CC3(C)CN(C(=O)c4ccccc4)C3)c12` (stereo partly drawn) [Example 426, (7R)-2-{1-[(1-benzoyl-3-methylazetidin-3-yl)methyl]-2-[1-(cyclopropylmethyl)-1H-indol-2-yl]-7-methoxy-1H-1,3-benzodiazole-5-carobnyl}-2-azabicyclo[2.2.1]heptan-7-amine], 7.62. As for `COc1ccccc1C(=O)N1CC(Cn2c(-c3cc4ccccc4n3CC3CC3)nc3cc(C(=O)N4C[C@H]5CC[C@@H]4[C@@H]5N)cc(OC)c32)C1` [Example 168, (1R,4R,7R)-2-{2-[1-(cyclopropylmethyl)-1H-indol-2-yl]-7-methoxy-1-{[1-(2-methoxybenzoyl)azetidin-3-yl]methyl}-1H-1,3-benzodiazol-5-carbonyl}-2-azabicyclo[2.2.1]heptan-7-amine], the figure is 7.48; as for `COc1cc(C(=O)N2C[C@H](N)C[C@@H](F)C2)cc2nc(-c3cc4ccccc4n3CC3CC3)n(CC3(F)CN(C(=O)c4ccccc4)C3)c12` [Example 425, (3R,5R)-1-{1-[(1-benzoyl-3-fluoroazetidin-3-yl)methyl]-2-[1-(cyclopropylmethyl)-1H-indol-2-yl]-7-methoxy-1H-1,3-benzodiazole-5-carbonyl}-5-fluoropiperidin-3-amine], 7.57; as for `N#Cc1ccc(C(=O)N2CC(Cn3c(-c4cc5cccnc5n4CC4CC4)nc4cc(C(=O)N5C[C@H]6CC[C@@H]5[C@@H]6N)cc(Cl)c43)C2)cc1` [Example 96, 4-[3-({5-[(1R,4R,7R)-7-amino-2-azabicyclo[2.2.1]heptane-2-carbonyl]-7-chloro-2-[1-(cyclopropylmethyl)-1H-pyrrolo[2,3-b]pyridin-2-yl]-1H-1,3-benzodiazol-1-yl}methyl)azetidine-1-carbonyl]benzonitrile], 7.08.
